The results in this text go back to patent US20240043420A1, “7-AZAINDOLE COMPOUNDS FOR INHIBITION OF BCR-ABL TYROSINE KINASES” (EnLiven Therapeutics, Inc., priority 2020, published 2024).

Molecules are shown by their SMILES.

One assay has as its system K562 cells. The experiment in a line: K562 cell proliferation assay (CellTiter-Glo). Particulars: Homo sapiens, K562, 72 h, CellTiter-Glo viability, read-out: Cell Line (IC50, nM) K562. Format: cell-based. How it is done:
(§1) K562 and HL60 cells, cultured in Iscove's Modified Dulbecco's Media (IMDM) supplemented with 10% FBS, were harvested at 50-80% confluency and plated at 2,000 cells per well (K562) or 1,500 cells per well (HL60) in 384-well tissue culture plates. A subset of wells contained media only (low control, LC). Compounds were serially diluted in DMSO. 40 nL of compound or DMSO only (high control, HC) were added to each well using an Echo 550 liquid handler (Labcyte). The plates were placed in a 37° C. incubator with 5% CO2 for 72 hours. Cell viability was measured using a CellTiter-Glo luminescent cell viability assay (Promega), which allows for relative quantification of metabolically active cells by luminescence-based measurements of intracellular ATP concentrations. Briefly, plates were removed from the incubator and equilibrated for 15 minutes at room temperature prior to the addition of 40 μL of CellTiter-Glo reagent. Plates were then incubated for 30 minutes at room temperature. Luminescence was measured using an EnSpire plate reader (Perkin Elmer). As noted above, luminescence values from wells with DMSO only or media without cells were used as high and low controls (HC and LC), respectively. Normalized percent viability was calculated as follows: percent viability=100×(Lumsample−LumLC)/(LumHC−LumLC).
For orientation: Cellular ATP, detected with luciferase, serves as a proxy for viable cell number.

Another assay has as its system HL60 cells. The experiment in a line: HL60 cell proliferation assay (CellTiter-Glo). It counts as cell-based. As to conditions: Homo sapiens, HL-60, 72 h, CellTiter-Glo viability, read-out: Cell Line (IC50, nM) HL60. Here is the method: as §1
For a further assay, the target named is T1, ABL1 (Homo sapiens, UniProt P00519).
T1 construct: purchased Carna Biosciences
The experiment in a line: Luminescence-based ABL kinase assay (ADP-Glo, 300 μM ATP). Format: biochemical. Put shortly: (§2)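 ABL1 (3.325 nM in the enzyme solution) was preincubated with compound for 30 min at RT in HEPES pH 7.5 buffer with MgCl2, EGTA, DTT, BSA and Brij-35. Adding Peptide 2 and ATP (6 μM and 1.2 mM in the start solution) began a 90 min RT reaction. ADP-Glo luminescence gave % activity and IC50.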
In general terms: ADP-Glo first removes unused ATP, then detects ADP through luciferase.

The next assay concerns the target ABL1 (T315I) (Homo sapiens, UniProt P00519, T315I). As to the kind of experiment: Luminescence-based ABL kinase assay (ADP-Glo, 300 μM ATP), T315I mutant. Format: biochemical. The essentials:
as §2

As to `COc1cc2sncc2cc1-c1c[nH]c2nc(NC(=O)[C@@H]3C[C@@H]3F)ccc12` [Compound 84, (1S,2S)-2-fluoro-N-[3-(6-methoxy-1,2-benzothiazol-5-yl)-1H-pyrrolo[2,3-b]pyridin-6-yl]cyclopropane-1-carboxamide], the IC50 with K562 cells was 150 nM; in the assay with HL60 cells it was over 10000 nM; on ABL1, 37 nM; on ABL1 (T315I), 14.9 nM.
Regarding `COc1cc2scnc2cc1-c1c[nH]c2nc(NC(=O)[C@@H]3C[C@@H]3F)ccc12` [Compound 85, (1S,2S)-2-fluoro-N-[3-(6-methoxy-1,3-benzothiazol-5-yl)-1H-pyrrolo[2,3-b]pyridin-6-yl]cyclopropane-1-carboxamide], the IC50 with K562 cells was 46 nM; in the assay with HL60 cells it was 7250 nM; at ABL1, 5.34 nM; against ABL1 (T315I), 27.8 nM.
For `COc1cc2ncoc2cc1-c1c[nH]c2nc(NC(=O)[C@@H]3C[C@@H]3F)ccc12` [Compound 87, (1S,2S)-2-fluoro-N-(3-(5-methoxybenzo[d]oxazol-6-yl)-1H-pyrrolo[2,3-b]pyridin-6-yl)cyclopropane-1-carboxamide] the same measures were 94.1 nM, over 10000 nM, 9.54 nM and 6.59 nM.
For the molecule `COc1cc2ocnc2cc1-c1c[nH]c2nc(NC(=O)[C@@H]3C[C@@H]3F)ccc12` [Compound 88, (1S,2S)-2-fluoro-N-(3-(6-methoxybenzo[d]oxazol-5-yl)-1H-pyrrolo[2,3-b]pyridin-6-yl)cyclopropane-1-carboxamide], the IC50 was 84.1 nM in the assay on K562 cells, over 10000 nM with HL60 cells, 18.6 nM against ABL1 and 30.9 nM at ABL1 (T315I).
Taken in the same sequence, the figures for `COc1c(-c2n[nH]c3nc(NC(=O)[C@@H]4C[C@@H]4F)ccc23)ccc2[nH]cnc12` [Compound 90, (1S,2S)-2-fluoro-N-[3-(4-methoxy-1H-1,3-benzodiazol-5-yl)-1H-pyrazolo[3,4-b]pyridin-6-yl]cyclopropane-1-carboxamide] were 1100 nM, over 10000 nM, 21.7 nM and 15 nM.
Taken in the same sequence, the figures for `COc1ccccc1-c1c[nH]c2nc(NC(=O)[C@H]3C[C@H]3CO)ccc12` [Compound 91, (1S,2R)-2-(hydroxymethyl)-N-[3-(2-methoxyphenyl)-1H-pyrrolo[2,3-b]pyridin-6-yl]cyclopropane-1-carboxamide] were 1080 nM, over 10000 nM, 166 nM and 24.6 nM.
Taken in the same sequence, the figures for `COc1ncc(F)cc1-c1c[nH]c2nc(NC(=O)[C@@H]3C[C@@H]3F)ccc12` [Compound 92, (1S,2S)-2-fluoro-N-[3-(5-fluoro-2-methoxypyridin-3-yl)-1H-pyrrolo[2,3-b]pyridin-6-yl]cyclopropane-1-carboxamide] were 248 nM, over 10000 nM, 39.4 nM and 27.3 nM.
In the case of `O=C(Nc1ccc2c(-c3ccccc3OC3CC3)n[nH]c2n1)[C@@H]1C[C@@H]1F` [Compound 94, (1S,2S)—N-(3-(2-cyclopropoxyphenyl)-1H-pyrazolo[3,4-b]pyridin-6-yl)-2-fluorocyclopropane-1-carboxamide], the IC50 was found to be 55.6 nM in the assay on K562 cells, 7580 nM in the assay on HL60 cells, 10.8 nM at ABL1 and 6.36 nM against ABL1 (T315I).
`COc1cc2[nH]nnc2cc1-c1c[nH]c2nc(NC(=O)[C@@H]3C[C@@H]3F)ccc12` [Compound 96, (1S,2S)-2-fluoro-N-[3-(6-methoxy-1H-1,2,3-benzotriazol-5-yl)-1H-pyrrolo[2,3-b]pyridin-6-yl]cyclopropane-1-carboxamide]: the IC50 in the assay with K562 cells is 862 nM; with HL60 cells, over 10000 nM; against ABL1, 8.87 nM; on ABL1 (T315I), 8.93 nM.
Taken in the same sequence, the figures for `COc1cc(F)ccc1-c1n[nH]c2nc(NC(=O)[C@@H]3C[C@@H]3F)ccc12` [Compound 99, (1S,2S)-2-fluoro-N-[3-(4-fluoro-2-methoxyphenyl)-1H-pyrazolo[3,4-b]pyridin-6-yl]cyclopropane-1-carboxamide] were 129 nM, over 10000 nM, 14.9 nM and 25.7 nM.
For `[2H]C([2H])([2H])Oc1ccccc1-c1n[nH]c2nc(NC(=O)[C@@H]3C[C@@H]3F)ccc12` [Compound 101, (1S,2S)-2-fluoro-N-(3-(2-(methoxy-d3)phenyl)-1H-pyrazolo[3,4-b]pyridin-6-yl)cyclopropane-1-carboxamide] the same measures were 94.2 nM, over 10000 nM, 16.4 nM and 15.3 nM.
Taken in the same sequence, the figures for `COc1ncnc(OC)c1-c1c[nH]c2nc(NC(=O)[C@@H]3C[C@@H]3F)ccc12` [Compound 102, (1S,2S)—N-[3-(4,6-dimethoxypyrimidin-5-yl)-1H-pyrrolo[2,3-b]pyridin-6-yl]-2-fluorocyclopropane-1-carboxamide] were 48 nM, over 10000 nM, 12.5 nM and 17.8 nM.
In the case of `CCNC(=O)Nc1ccc2c(-c3ccccc3OC)c[nH]c2n1` [Compound 103, 3-ethyl-1-[3-(2-methoxyphenyl)-1H-pyrrolo[2,3-b]pyridin-6-yl]urea], the IC50 in the assay with K562 cells was 751 nM; with HL60 cells, over 10000 nM; against ABL1, 99.2 nM; against ABL1 (T315I), 32.5 nM.
As for `CCN1CCN(CCNC(=O)Nc2ccc3c(-c4ccccc4OC)c[nH]c3n2)CC1` [Compound 109, 1-[2-(4-ethylpiperazin-1-yl)ethyl]-3-[3-(2-methoxyphenyl)-1H-pyrrolo[2,3-b]pyridin-6-yl]urea], the half-maximal inhibitory concentration (IC50) in the assay with K562 cells was 278 nM; in the assay with HL60 cells, over 10000 nM; on ABL1, 39 nM; against ABL1 (T315I) it was 7.08 nM.
On to `COc1ccccc1-c1c[nH]c2nc(NC(=O)NCCC3CCN(C4COC4)CC3)ccc12` [Compound 110, 3-[3-(2-methoxyphenyl)-1H-pyrrolo[2,3-b]pyridin-6-yl]-1-[2-[1-(oxetan-3-yl)piperidin-4-yl]ethyl]urea], for which the half-maximal inhibitory concentration (IC50) was 382 nM in the assay on K562 cells, over 10000 nM in the assay with HL60 cells, 74.8 nM on ABL1 and 18.2 nM against ABL1 (T315I).
Turning to `COc1cc2ncnn2cc1-c1c[nH]c2nc(NC(=O)[C@@H]3C[C@@H]3F)ccc12` [Compound 111, (1S,2S)-2-fluoro-N-(3-(7-methoxy-[1,2,4]triazolo[1,5-a]pyridin-6-yl)-1H-pyrrolo[2,3-b]pyridin-6-yl)cyclopropane-1-carboxamide], the IC50 in the assay on K562 cells is 321 nM; in the assay on HL60 cells it was over 10000 nM; on ABL1, 14.3 nM; at ABL1 (T315I) it was 151 nM.
For `COc1nccc(C)c1-c1n[nH]c2nc(NC(=O)[C@@H]3C[C@@H]3F)ccc12` [Compound 112, (1S,2S)-2-fluoro-N-[3-(2-methoxy-4-methylpyridin-3-yl)-1H-pyrazolo[3,4-b]pyridin-6-yl]cyclopropane-1-carboxamide] the same measures were 1860 nM, over 10000 nM, 271 nM and 157 nM.
For `COc1nccc(C)c1-c1c[nH]c2nc(NC(=O)[C@@H]3C[C@@H]3F)ccc12` [Compound 113, (1S,2S)-2-fluoro-N-[3-(2-methoxy-4-methylpyridin-3-yl)-1H-pyrrolo[2,3-b]pyridin-6-yl]cyclopropane-1-carboxamide] the same measures were 174 nM, over 10000 nM, 20.9 nM and 15.9 nM.
For the molecule `COc1c(-c2c[nH]c3nc(NC(=O)[C@@H]4C[C@@H]4F)ccc23)ccn2ncnc12` [Compound 115, (1S,2S)-2-fluoro-N-(3-[8-methoxy-[1,2,4]triazolo[1,5-a]pyridin-7-yl]-1H-pyrrolo[2,3-b]pyridin-6-yl)cyclopropane-1-carboxamide], the IC50 with K562 cells was 382 nM; with HL60 cells, over 10000 nM; against ABL1, 124 nM; at ABL1 (T315I), 151 nM.
Turning to `COc1cccc(OC)c1-c1c[nH]c2nc(NC(=O)[C@@H]3C[C@@H]3F)ccc12` [Compound 118, (1S,2S)—N-[3-(2,6-dimethoxyphenyl)-1H-pyrrolo[2,3-b]pyridin-6-yl]-2-fluorocyclopropane-1-carboxamide], the IC50 was 24.4 nM with K562 cells, over 10000 nM in the assay with HL60 cells, 3.73 nM against ABL1 and 1.48 nM against ABL1 (T315I).

By IC50 is commonly meant the concentration at which inhibition is half-maximal.
